In PubChem BioAssay (NCI):
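Results reflect a 48-hour exposure of cells in 96-well plates to compound at five concentrations. TGI: concentration producing complete growth inhibition.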

Key:
Assay in all cases: DTP human tumour cell line panel, 48 h
[1] = test system: LXFL 529 NSCLC
[2] = test system: SNB-75 CNS
[3] = test system: SF-295 CNS
[4] = test system: U251 CNS
[5] = test system: K-562 leukemia
[6] = test system: TK-10 renal
[7] = test system: UACC-62 melanoma
[8] = test system: MOLT-4 leukemia
[9] = test system: KM20L2 colon
[10] = test system: CCRF-CEM leukemia
[11] = test system: DMS 114 small cell lung
[12] = test system: SNB-19 CNS
[13] = test system: NCI-H460 lung
[14] = test system: MALME-3M melanoma
[15] = test system: SF-268 CNS
[16] = test system: HCC-2998 colon
[17] = test system: OVCAR-4 ovarian
[18] = test system: M14 melanoma
[19] = test system: SK-OV-3 ovarian
[20] = test system: NCI-H522 lung
[21] = test system: SK-MEL-2 melanoma
[22] = test system: IGROV1 ovarian
[23] = test system: HCT-116 colon
[24] = test system: RPMI-8226 leukemia
[25] = test system: CAKI-1 renal
[26] = test system: HT29 colon
[27] = test system: SW-620 colon
[28] = test system: COLO 205 colon
[29] = test system: HL-60(TB) leukemia
[30] = test system: XF 498 CNS
[31] = test system: UACC-257 melanoma
[32] = test system: SR leukemia
[33] = test system: HCT-15 colon
[34] = test system: OVCAR-5 ovarian
[35] = test system: RXF-631 renal
[36] = test system: HOP-92 NSCLC
[37] = test system: SF-539 CNS
[38] = test system: 786-0 renal
[39] = test system: SK-MEL-28 melanoma
[40] = test system: HOP-18 NSCLC
[41] = test system: OVCAR-3 ovarian
[42] = test system: EKVX NSCLC
[43] = test system: UO-31 renal
[44] = test system: DLD-1 colon
[45] = test system: A549 NSCLC
[46] = test system: NCI-H23 lung
[47] = test system: LOX IMVI melanoma
[48] = test system: OVCAR-8 ovarian
[49] = test system: M19-MEL melanoma
[50] = test system: KM12 colon
[51] = test system: SNB-78 CNS
[52] = test system: DMS 273 small cell lung
[53] = test system: SK-MEL-5 melanoma
[54] = test system: HOP-62 NSCLC
[55] = test system: ACHN renal
[56] = test system: A498 renal
[57] = test system: SN12C renal
[58] = test system: NCI-H226 lung
[59] = test system: RXF 393 renal

Measured: TGI

O=C1NC2(O)c3ccccc3C(=O)C2(O)N1c1ccccc1 (centres undefined)
> 100 µM: [1] | [2] | [3] | [4] | [5] | [6] | [7] | [8] | [9] | [10] | [11] | [12] | [13] | [14] | [15] | [16] | [17] | [18] | [19] | [20] | [21] | [22] | [23] | [24] | [25] | [26] | [27] | [28] | [29] | [30] | [31] | [32] | [33] | [34] | [35] | [36] | [37] | [38] | [39] | [40] | [41] | [42] | [43] | [44] | [45] | [46] | [47] | [48] | [49] | [50]

CC1OC(OC2C(Oc3cc(O)c4c(=O)cc(-c5ccc(O)cc5)oc4c3)OC(CO)C(O)C2O)C(O)C(O)C1O (centres undefined)
> 100 µM: [1] | [2] | [3] | [4] | [5] | [6] | [7] | [8] | [9] | [10] | [11] | [51] | [12] | [13] | [14] | [15] | [17] | [18] | [19] | [20] | [21] | [22] | [23] | [52] | [24] | [25] | [26] | [28] | [29] | [30] | [53] | [31] | [54] | [33] | [34] | [36] | [37] | [38] | [39] | [55] | [56] | [40] | [41] | [42] | [43] | [44] | [45] | [46] | [47] | [48] | [49] | [57] | [50]

COc1cc2c(cc1OC)[C@@H](C(O)c1ccccc1)NCC2 (some centres undefined)
> 100 µM: [1] | [2] | [3] | [4] | [5] | [6] | [7] | [8] | [58] | [9] | [10] | [11] | [51] | [12] | [13] | [14] | [15] | [16] | [17] | [18] | [19] | [20] | [21] | [22] | [23] | [52] | [25] | [26] | [27] | [28] | [29] | [30] | [53] | [31] | [59] | [54] | [32] | [33] | [34] | [35] | [36] | [37] | [38] | [55] | [56] | [41] | [42] | [43] | [44] | [45] | [46] | [47] | [48] | [49] | [57] | [50]
